According to US9663457B2, “Carbamoyl hydrazine derivatives as formyl peptide modulators” (Allergan, Inc., priority 2014, dated 2017):

Target: T1, FPR2 (Homo sapiens, UniProt P25090)
T1 construct: expressed in transfected cells; host or cells: HEK-Gα16, CHO-Gα16 and HEK-Gqi5 cells stably expressing FPR2
T1 sequence (P25090 1-351): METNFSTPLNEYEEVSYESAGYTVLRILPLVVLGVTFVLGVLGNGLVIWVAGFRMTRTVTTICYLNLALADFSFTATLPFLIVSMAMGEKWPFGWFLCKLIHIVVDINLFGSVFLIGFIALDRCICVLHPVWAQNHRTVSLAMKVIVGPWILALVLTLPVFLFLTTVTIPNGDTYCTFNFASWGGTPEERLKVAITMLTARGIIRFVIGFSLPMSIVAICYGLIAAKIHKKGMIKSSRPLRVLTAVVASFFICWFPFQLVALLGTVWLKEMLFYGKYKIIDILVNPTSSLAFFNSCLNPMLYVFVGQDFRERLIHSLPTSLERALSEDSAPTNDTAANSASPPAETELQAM
Assay: FPR2 compound-induced calcium activity assay on FLIPR Tetra
Format: cell-based
Conditions: HEK-Gα16, CHO-Gα16 or HEK-Gqi5 cells stably expressing FPR2, tested at 0.61 to 10,000 nM; for Emax: read-out: % Efficacy
Protocol: Compounds of Formula I modulate FPR activity. […] HEK-Gα16 and CHO-Gα16 cells stably expressing FPR2 were cultured in (F12, 10% FBS, 1% PSA, 400 μg/ml geneticin and 50 μg/ml hygromycin) and HEK-Gqi5 cells stable expressing FPR2 were cultured in (DMEM high glucose, 10% FBS, 1% PSA, 400 μg/ml geneticin and 50 μg/ml hygromycin). In general, the day before the experiment, 18,000 cells/well were plated in a 384-well clear bottom poly-D-lysine coated plate. The following day, the screening compound-induced calcium activity was assayed on the FLIPR^Tetra. The drug plates were prepared in 384-well microplates using the EP3 and the MuItiPROBE robotic liquid handling systems. Compounds were tested at concentrations ranging from 0.61 to 10,000 nM. Results are expressed as EC50 (nM) and efficacy values.

EC50	Emax	Structure (SMILES)
750 nM	100%	CCOC(=O)CC(=O)NNC(=O)Nc1ccc(Br)cc1 [Compound 1, Ethyl 3-{2[(4-bromophenyl)carbamoyl]hydrazinyl}-3-oxopropanoate]
5210 nM	73%	CC(C)(C(=O)O)C(=O)NNC(=O)Nc1ccc(Br)cc1 [Compound 2, 3-{2-[(4-Bromophenyl)carbamoyl]hydrazinyl}-2,2-dimethyl-3-oxopropanoic Acid]
602 nM	86%	CC(C)(CC(=O)NNC(=O)Nc1ccc(Br)cc1)C(=O)O [Compound 3, 4-{2-[(4-bromophenyl)carbamoyl]hydrazinyl}-2,2-dimethyl-4-oxobutanoic acid]
46 nM	89%	CCCC(CCC)(CC(=O)NNC(=O)Nc1ccc(Br)cc1)C(=O)OC [Compound 4, methyl 2-(2-{2-[(4-bromophenyl)carbamoyl]hydrazinyl}-2-oxoethyl)-2-propylpentanoate]
215 nM	87%	CCCC(CCC)(CC(=O)NNC(=O)Nc1ccc(Br)cc1)C(=O)O [Compound 5, 2-[2-(2-{[(4-Bromophenyl)amino]carbonyl}hydrazino)-2-oxoethyl]-2-propylpentanoic Acid]
421 nM	73%	CCC(CC)(CC(=O)NNC(=O)Nc1ccc(Br)cc1)C(=O)O [Compound 6, 4-{2-[(4-bromophenyl)carbamoyl]hydrazinyl}-2,2-diethyl-4-oxobutanoic acid]
31 nM	100%	CCOC(=O)CCC(=O)N(CC(C)C)NC(=O)Nc1ccc(Br)cc1 [Compound 7, Ethyl 4-{2-[(4-Bromophenyl)carbamoyl]-1-(2-methylpropyl)hydrazinyl}-4-oxobutanoate]
12 nM	100%	CC(C)CN(NC(=O)Nc1ccc(Br)cc1)C(=O)CCC(=O)O [Compound 8, 4-{2-[(4-Bromophenyl)carbamoyl]-1-(2-methylpropyl)hydrazinyl}-4-oxobutanoic Acid]
3660 nM	76%	CCOC(=O)CCC(=O)N(CC(C)C)NC(=O)Nc1ccc(Br)cc1F [Compound 9, ethyl 4-{2-[(4-bromo-2-fluorophenyl)carbamoyl]-1-(2-methylpropyl)hydrazinyl}-4-oxobutanoate]
339 nM	99%	CC(C)CN(NC(=O)Nc1ccc(Br)cc1F)C(=O)CCC(=O)O [Compound 10, 4-{2-[(4-bromo-2-fluorophenyl)carbamoyl]-1-(2-methylpropyl)hydrazinyl}-4-oxobutanoic acid]
57 nM	94%	CCOC(=O)CCC(=O)N(CC(C)C)NC(=O)Nc1ccc(C(F)(F)F)cc1 [Compound 11, ethyl 4-[1-(2-methylpropyl) 2{[4-(trifluoromethyl)phenyl]carbamoyl}hydrazinyl]-4-oxobutanoate]
21 nM	98%	CC(C)CN(NC(=O)Nc1ccc(C(F)(F)F)cc1)C(=O)CCC(=O)O [Compound 12, 4-[1-(2-methylpropyl)-2-{[4-(trifluoromethyl)phenyl]carbamoyl}hydrazinyl]-4-oxobutanoic acid]
35 nM	98%	CCCN(NC(=O)Nc1ccc(C(F)(F)F)cc1)C(=O)CCC(=O)OCC [Compound 13, ethyl 4-oxo-4-(1-propyl-2-{[4-(trifluoromethyl)phenyl]carbamoyl}hydrazinyl)butanoate]
28 nM	97%	CCCN(NC(=O)Nc1ccc(C(F)(F)F)cc1)C(=O)CCC(=O)O [Compound 14, 4-oxo-4-(1-propyl-2-{[4-(trifluoromethyl)phenyl]carbamoyl}hydrazinyl)butanoic acid]
34 nM	100%	CCCCN(NC(=O)Nc1ccc(Br)cc1)C(=O)CCC(=O)OCC [Compound 15, ethyl 4-{2-[(4-bromophenyl)carbamoyl]-1-butylhydrazinyl}-4-oxobutanoate]
34 nM	100%	CCCN(NC(=O)Nc1ccc(Br)cc1F)C(=O)CCC(=O)OCC [Compound 16, ethyl 4-{2-[(4-bromo-2-fluorophenyl)carbamoyl]-1-propylhydrazinyl}-4-oxobutanoate]
29 nM	100%	CCCN(NC(=O)Nc1ccc(Br)cc1F)C(=O)CCC(=O)O [Compound 17, 4-{2-[(4-bromo-2-fluorophenyl)carbamoyl]-1-propylhydrazinyl}-4-oxobutanoic acid]
